This assay deals with T1, human cloned 5-HT6 receptors (Homo sapiens, UniProt P50406).
T1 construct: expressed in transfected cells
The assay is described as follows: affinity for the 5-HT6 receptor (procedures of WO98/27081). The class given is binding. An excerpt:
Compounds can be tested following the procedures outlined in WO98/27081.

Each structure is given as a SMILES string. pKi: −log10 of the molar value. Counter-ions that a name gives are not always drawn. Bounds are passed on as bounds.

T1 sequence (P50406 whole entry): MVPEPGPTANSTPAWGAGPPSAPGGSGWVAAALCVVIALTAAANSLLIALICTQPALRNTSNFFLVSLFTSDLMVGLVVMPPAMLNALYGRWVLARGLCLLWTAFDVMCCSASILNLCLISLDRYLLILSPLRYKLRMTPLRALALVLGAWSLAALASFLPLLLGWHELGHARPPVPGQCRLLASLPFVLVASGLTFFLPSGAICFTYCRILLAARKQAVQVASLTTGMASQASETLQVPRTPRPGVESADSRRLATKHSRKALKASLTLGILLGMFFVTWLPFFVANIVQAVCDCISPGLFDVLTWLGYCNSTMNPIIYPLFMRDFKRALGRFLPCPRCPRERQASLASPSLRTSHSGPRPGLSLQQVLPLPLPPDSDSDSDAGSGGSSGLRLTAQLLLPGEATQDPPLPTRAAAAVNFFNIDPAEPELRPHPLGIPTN

Broadly, the pKi is the negative decadic logarithm of the Ki, by convention in mol/L. As to `O=S(=O)(c1cccc(Cl)c1)n1ccc2c(N3CCNCC3)ccnc21` [Example E1, 4[1-(3-Chlorobenzenesulfonyl)-1-pyrrolo[2,3-b]pyridin-4-yl]-piperazine hydrochloride], the negative logarithm of the Ki (pKi) is over 8.00.

Source of the values: patent publication US20050090496A1, “Sulphonyl compounds with 5-ht6 receptor affinity” (priority 2002, published 2005).
